The source of these data is article PMC9144936, “New Cu^+2 Complexes with N-Sulfonamide Ligands: Potential Antitumor, Antibacterial, and Antioxidant Agents” (Molecules, 2022).

The nature of assay [1]: SOD mimetic activity, xanthine/xanthine oxidase system, NBT reduction. It counts as biochemical. As to conditions: pH 7.8, read-out: SOD-like activity IC50 (50% inhibition of NBT reduction). Here is the method: The SOD-like activities of complexes C1 and C2 were determined by an indirect method using the xanthine/xanthine oxidase system as the source of superoxide radicals. […] The IC50 value for native Cu2Zn2SOD is 0.006 μΜ. Thus, the IC50 values for both complexes are higher than the IC50 value for native Cu2Zn2SOD but are similar to those of complexes with related sulfonamide ligands presented in the literature.
The in vitro SOD mimetic activities of the complexes were assayed using the Oberley and Spitz method with some minor modifications. To generate a reproductible and constant flux of superoxide anions, xanthine (1.5 × 10^−4 M) and xanthine oxidase in 50 mM potassium phosphate buffer, pH = 7.8, were used. The superoxide anions were detected by the reduction of nitro blue tetrazolium (NBT) (5.6 × 10^−5 M) to blue formazane, which was determined spectrophotometrically at 560 nm. Different concentrations of the complexes (50, 25, 12.5, 2, and 0.2 μM) were prepared in 50 mM Tris-HCl buffer, pH = 7.8. For each determination, 0.1 mL complex solution + 0.1 mL xanthine oxidase were added to 0.8 mL of solution containing 0.69 mL potassium phosphate buffer (pH = 7.8), 0.025 mL NBT, and […]. The inhibition percentage of NBT reduction was used to determine the SOD activities of the complexes. The conversion of xanthine to uric acid was measured at 310 nm. The % inhibition of enzyme activity was subtracted from that of NBT. The IC50 values (the concentration of complex needed to yield 50% inhibition of NBT reduction) were determined from plots of % inhibition versus complex concentration. A Specord 200 Plus Spectrophotometer was used to perform the determinations and all reagents were purchased from Sigma-Aldrich.

For assay [2], the system named is normal fibroblastic epithelial cell line (HFL1). The assay is described as follows: MTT cytotoxicity assay, HFL1. The format is cell-based. As to conditions: HFL1 cells. Here is the method:
Three cell lines were used to determine the cytotoxicity of the complexes, a human cervical carcinoma line (HeLa), a human radical growth phase melanoma cell line (WM35), and a normal fibroblastic epithelial cell line (HFL1) using the MTT method. The cells were exposed to C1 and C2 complexes in different concentrations (50, 25, 12.5, 2, and 0.2 µM) at 24, 48, and 72 h. As positive contro, cisplatin was used.
To determine the cytotoxicity of the copper complexes, three cell lines were used: a human cervical carcinoma line (HeLa), a human radical growth phase melanoma cell line (WM35), and a normal fibroblastic epithelial cell line (HFL1). The cell lines were obtained from ATCC (American Type Cell Collection, Manassas, VA 20110-2209, USA) and were maintained in DMEM (Sigma-Aldrich, Saint Louis, Missouri, USA) supplemented with 10% fetal bovine serum (Hyclone), 1 mM glutamine (Sigma-Aldrich), and 1% antibiotic antimycotic 100× (Sigma-Aldrich). The cells were cultured at 37 °C in an atmosphere of 5% CO2 and 95% relative humidity.
The cytotoxicity assays were performed using the MTT assay (3-(4,5-dimethylthiazol-2-yl)-2,5-diphenyl tetrazolium bromide-Sigma Aldrich). Cells were plated at a density of 1 × 10^5 cells/well in 96-well plates for 24 h in normal propagation media. The cultures were then exposed to C1 and C2 complexes in different concentrations (50, 25, 12.5, 2, and 0.2 µM). The complexes were first solubilized in DMSO (Sigma) and then serial dilutions in media were performed until the final concentration of DMSO was less than 1%. As a positive control, cisplatin (Ebewe Pharma Ges.m.b.H. Nfg. KG, Austria) was used, in the same concentrations as the complexes. As a negative control, cell lines cultivated in normal expansion medium with the same amount of DMSO added were used. The cellular viability was determined using the MTT assay at 24, 48, and 72 h, respectively. Formazan particles were solubilized with DMSO and absorbances were determined at 550 nm using a microplate reader (Bio-Rad, Hercules, CA, USA). The cytotoxic activity, expressed as IC50 values representing the complex solution required to inhibit 50% of the cell proliferation, were calculated from the calibration curve by nonlinear regression. Each experiment was carried out in triplicate.
For orientation: Tetrazolium assays rely on reduction of a dye to a coloured formazan, in cell work by metabolically active cells.

The test system of assay [3] is Staphylococcus aureus ATCC 6538P. The assay is described as follows: Disk diffusion method, S. aureus. It counts as cell-based. To be noted: complexes 5 µL of 1 mg/mL; 25 µg Amoxicillin, 5 µg Norfloxacin; 24 h, 37 °C. An excerpt:
The disk diffusion method was used to determine the antibacterial activity of the C1 and C2 copper complexes on four reference microbial strains, two Gram-positive (Staphylococcus aureus and Bacillus cerreus) and two Gram-negative (Escherichia coli and Pseudomonas aeruginosa) strains. The disk diffusion method was used to determine the antibacterial activity of the C1 and C2 copper complexes. The method was adapted for the purposes of the current study, according to the standards developed by the Clinical and Laboratory Standards Institute. Four reference microbial strains, two Gram-positive (Staphylococcus aureus ATCC […] and Bacillus cerreus ATCC 14579) and two Gram-negative (Escherichia coli ATCC 10536 and Pseudomonas aeruginosa ATCC 27853) strains, were used for in vitro susceptibility testing. These reference microbial strains were obtained from the American Type Culture Collection (ATCC, Manassas, VA, USA). As positive controls, Amoxicillin (Oxoid Ltd., Basingstoke, UK) and Norfloxacin (Sigma-Aldrich) were used. For each of the four species, an initial suspension of bacterial cultures was inoculated on nutrient agar plates (Merck KGaA, Darmstadt, Germany), incubated for 24 h at 37 ± 2 °C and resuspended in a physiological saline buffer to a […] concentration (on a 0.5 McFarland scale), and further inoculated on Muëller Hinton agar plates (Merck KGaA, Darmstadt, Germany). […] After inoculation, the medium surface was dried and 8 wells were radially drilled 1.5 cm from the outer edge, 3 cm apart. From aliquot samples of 1 mg/mL of each copper complex dissolved in DMSO and incorporated in sterile liquid medium, 5 μL was placed in each of the 8 wells and left for 30 min to diffuse into the agar plates. The plates were then incubated for 24 h at 37 ± 2 °C. Then, 25 μg Amoxicillin and 5 μg Norfloxacin served as a positive controls, while DMSO 0.75% was used as a negative control. Readings were conducted by measuring the diameter of the inhibition zone (Halo Zone Test, in mm). The germ sensitivity of the copper complexes was estimated by comparing the diameter of the inhibition area to that generated by the regular antibiotics with known inhibition values. […] All tests were triplicated, and the measured diameters of the inhibition zone were expressed (in mm) as mean ± standard deviation.

For “[Cu(N-(5-(4-Methylphenyl)-[1,3,4]-Thiadiazole-2-yl) Naphtalenesulfonamidate)2(H2O)3] [C1]”, the half-maximal inhibitory concentration (IC50) (in general, the concentration that inhibits the measured activity by half) in assay [1] came out at 0.283 µM; in assay [2] (24 h), 44.7 ± 0.51 µM; in assay [2] (48 h), 7.38 ± 0.12 µM; in assay [2] (72 h), 3.75 ± 0.15 µM. Further, in assay [3], the “Halo Zone Test (diameter of the inhibition zone)” value worked out at 13 ± 0.17 mm.
As to “[Cu(N-(5-Ethyl--[1,3,4]-Thiadiazole-2-yl) Naphtalenesulfonamidate)2(py)2(H2O)] [C2]”, the IC50 in assay [1] came out at 0.174 µM; in assay [2] (24 h), 18 ± 1.08 µM; in assay [2] (48 h), 5.55 ± 0.22 µM; in assay [2] (72 h), 2.03 ± 0.04 µM. The “Halo Zone Test (diameter of the inhibition zone)” value in assay [3] amounted to 15 ± 0.44 mm.
